Consider two molecules from patent publication EP0201094A2, “Thieno[2,3-d]imidazole derivatives and process for their preparation” (Hafslund Nycomed Pharma Aktiengesellschaft, priority 1985, dated 1986).

The assay deals with Magensekretion. Nature of the assay: Gastric secretion in pylorus-ligated conscious female rats after oral dosing. In kind it is in vivo, Ratten (Stamm: Charles River CD). Conditions: for Säure gesamt / Säurekonzentration / Menge: pylorus ligation 60 min after dosing; for Säure gesamt / Säurekonzentration: measured 4 h after ligation; for Menge: stomach content measured 4 h after ligation; for Hemmung der Magensekretion: result in words, increasing oral doses of 125, 250 and 500 µmol/kg. As to the method:
Die Substanzen wurden in 20 %-igem Dimethylsulfoxid gelöst und wachen weiblichen Ratten - (Stamm: Charles River CD) in ansteigenden Dosen von 125, 250 und 500 µmol/kg mit dem einheitlichen Dosierungsvolumen von 20 ml/kg oral appliziert. 60 Minuten später wurden die Tiere einer Pylorusligatur unterzogen. 4 Stunden nach Setzen der Pylorusligatur wurde die Säurekonzentration und der Gesamtsäuregehalt im Magenvolumen der Tiere bestimmt. Die Kontrollgruppe erhielt 20 ml/kg Dimethylsulfoxid bzw. 20 ml/kg destilliertes Wasser.

Consider `COc1c(C)cnc(C[S+]([O-])c2nc3cc(C(C)=O)sc3[nH]2)c1C` (centres unmarked) [Verbindung A, 5-Acetyl-2-((4-methoxy-3,5-dimethyl-2-pyridyl)-methylsulfinyl)-3H-thieno(2,3-d)imidazol], for which the “Hemmung der Magensekretion” value is “signifikante, dosisabhängige Hemmung der Magensekretion”. In addition, for the setting “125 µmol/kg oral”, the Säure gesamt was 0.37±0.06 mÄq, the Säurekonzentration is listed as 0.08±0.008 mÄq/ml and the Menge is 4.7 ± 0.4 mL. For the setting “250 µmol/kg oral”, this molecule showed a Säure gesamt of 0.16±0.03 mÄq, a Säurekonzentration of 0.04±0.006 mÄq/ml and a Menge of 3.4 ± 0.3 mL. For the setting “500 µmol/kg oral”, the Säure gesamt is listed as 0.13±0.03 mÄq, the Säurekonzentration is listed as 0.04±0.005 mÄq/ml and the Menge worked out at 3.1 ± 0.4 mL.

In the case of `COc1ccnc(C[S+]([O-])c2nc3ccsc3[nH]2)c1` (centres unmarked) [Verbindung B], the “Hemmung der Magensekretion” value is recorded as “signifikante, dosisabhängige Hemmung der Magensekretion”. Under “125 µmol/kg oral”, the Säure gesamt turned out to be 0.37±0.07 mÄq, the Säurekonzentration was found to be 0.08±0.007 mÄq/ml and the Menge came to 4.5 ± 0.6 mL. Moreover, under “250 µmol/kg oral”, the Säure gesamt worked out at 0.27±0.05 mÄq, the Säurekonzentration worked out at 0.05±0.004 mÄq/ml and the Menge was 5.0 ± 0.6 mL. For the setting “500 µmol/kg oral”, the Säure gesamt came out at 0.14±0.02 mÄq, the Säurekonzentration was determined as 0.03±0.004 mÄq/ml and the Menge turned out to be 4.5 ± 0.4 mL.
